In ChEMBL document CHEMBL5131569, “SAGE-718: A First-in-Class N-Methyl-d-Aspartate Receptor Positive Allosteric Modulator for the Potential Treatment of Cognitive Impairment” (J Med Chem, 2022):

Key:
[1] = Metabolic stability in rat liver microsomes assessed as intrinsic clearance at 10 uM preincubated for 5 mins followed by NADPH addition and measured upto 65 mins by LC-MS/MS analysis; type: ADME, Microsome; details: time < 70 min, read-out: CLH
[2] = target: Glutamate NMDA receptor; GRIN1/GRIN2B (Homo sapiens, UniProt Q05586+Q13224); experiment: Positive allosteric modulation of recombinant human GluN1/GluN2B receptor stably expressed in HEK293 cells assessed as increase in glycine/L-glutamate-induced channel current at -70 mV holding potential by whole cell patch clamp method; type: cell-based
[3] = Lipophilicity, logD of compound in MeOH at 20 uM by HPLC analysis; type: physicochemical
[4] = Clearance in Sprague-Dawley rat by LC-MS/MS analysis; type: ADME; details: in vivo
[5] = Oral bioavailability in Sprague-Dawley rat by LC-MS/MS analysis; type: ADME, organism-based; details: in vivo
[6] = target: T1, Cytochrome P450 1A2 (Homo sapiens, UniProt P05177); experiment: Inhibition of CYP1A2 (unknown origin); type: ADME
T1 sequence (P05177 whole entry): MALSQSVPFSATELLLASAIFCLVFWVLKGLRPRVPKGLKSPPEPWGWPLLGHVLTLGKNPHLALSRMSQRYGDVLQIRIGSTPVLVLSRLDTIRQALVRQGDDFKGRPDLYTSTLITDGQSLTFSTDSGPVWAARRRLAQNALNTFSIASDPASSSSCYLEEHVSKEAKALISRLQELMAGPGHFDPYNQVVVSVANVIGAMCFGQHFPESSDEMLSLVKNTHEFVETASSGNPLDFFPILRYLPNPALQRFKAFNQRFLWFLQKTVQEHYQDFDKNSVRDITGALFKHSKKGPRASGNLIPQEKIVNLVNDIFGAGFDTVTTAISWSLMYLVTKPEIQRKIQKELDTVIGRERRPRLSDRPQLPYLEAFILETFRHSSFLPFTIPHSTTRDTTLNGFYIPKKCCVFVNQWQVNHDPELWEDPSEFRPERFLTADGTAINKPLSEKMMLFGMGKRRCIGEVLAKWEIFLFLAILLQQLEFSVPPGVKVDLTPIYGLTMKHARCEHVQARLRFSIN

[7] = target: T2, Cytochrome P450 2C8 (Homo sapiens, UniProt P10632); experiment: Inhibition of CYP2C8 (unknown origin); type: ADME
T2 sequence (P10632 whole entry): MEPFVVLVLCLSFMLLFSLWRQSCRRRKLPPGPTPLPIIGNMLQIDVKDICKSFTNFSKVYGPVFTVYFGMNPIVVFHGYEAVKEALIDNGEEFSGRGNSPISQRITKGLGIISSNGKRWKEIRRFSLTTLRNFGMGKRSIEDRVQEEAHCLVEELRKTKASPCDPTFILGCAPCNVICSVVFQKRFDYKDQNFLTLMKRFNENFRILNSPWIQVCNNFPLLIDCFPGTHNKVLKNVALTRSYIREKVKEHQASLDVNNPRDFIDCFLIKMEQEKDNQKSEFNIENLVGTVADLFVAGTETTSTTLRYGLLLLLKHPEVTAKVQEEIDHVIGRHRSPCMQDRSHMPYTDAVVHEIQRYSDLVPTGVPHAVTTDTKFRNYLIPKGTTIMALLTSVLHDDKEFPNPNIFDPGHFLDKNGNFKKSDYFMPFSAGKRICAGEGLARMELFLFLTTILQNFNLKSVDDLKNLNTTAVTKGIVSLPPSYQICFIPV

[8] = target: Cytochrome P450 2C19 (Homo sapiens, UniProt P33261); experiment: Inhibition of CYP2C19 (unknown origin); type: ADME
[9] = target: Cytochrome P450 3A4 (Homo sapiens, UniProt P08684); experiment: Inhibition of CYP3A4 (unknown origin); type: ADME
[10] = Plasma protein binding in mouse after 15 mins by equilibrium dialysis method; type: ADME, cell-free; details: read-out: PPB (converted)
[11] = Plasma protein binding in rat after 15 mins by equilibrium dialysis method; type: ADME, cell-free; details: read-out: PPB (converted)
[12] = Plasma protein binding in dog after 15 mins by equilibrium dialysis method; type: ADME, cell-free, Canis lupus familiaris; details: read-out: PPB (converted)
[13] = Plasma protein binding in human after 15 mins by equilibrium dialysis method; type: ADME, cell-free; details: read-out: PPB (converted)
[14] = Inhibition of Kv4.3/KChIP2.2 (unknown origin) by patch clamp method; set-up: species or system Homo sapiens
[15] = target: Potassium voltage-gated channel subfamily A member 5 (Homo sapiens, UniProt P22460); experiment: Inhibition of Kv1.5 (unknown origin) by patch clamp method
[16] = tested on: Mus musculus; experiment: Reversal of DOI-induced hyperlocomotion in CD-1 mouse assessed as reduction in distance travel at 3 mg/kg, ip administered 90 mins prior to DOI induction and measured upto 30 mins post DOI treatment (reference value: 7.8 +/- 0.8 meter); type: functional; details: time <= 120 min, 2 h
[17] = tested on: Mus musculus; experiment: Reversal of DOI-induced hyperlocomotion in CD-1 mouse assessed as reduction in distance travel at 5 mg/kg, ip administered 90 mins prior to DOI induction and measured upto 30 mins post DOI treatment (reference value: 7.8 +/- 0.8 meter); type: functional; details: time <= 120 min, 2 h
[18] = tested on: Mus musculus; experiment: Reversal of DOI-induced hyperlocomotion in CD-1 mouse assessed as reduction in distance travel at 10 mg/kg, ip administered 90 mins prior to DOI induction and measured upto 30 mins post DOI treatment (reference value: 7.8 +/- 0.8 meter); type: functional; details: time <= 120 min, 2 h
[19] = tested on: Mus musculus; experiment: Reversal of DOI-induced hyperlocomotion in CD-1 mouse assessed as reduction in rearing at 3 mg/kg, ip administered 90 mins prior to DOI induction and measured upto 30 mins post DOI treatment (reference value: 59.8 +/- 8.6 Counts); type: functional; details: time <= 120 min, 2 h
[20] = tested on: Mus musculus; experiment: Reversal of DOI-induced hyperlocomotion in CD-1 mouse assessed as reduction in rearing at 5 mg/kg, ip administered 90 mins prior to DOI induction and measured upto 30 mins post DOI treatment (reference value: 59.8 +/- 8.6 Counts); type: functional; details: time <= 120 min, 2 h
[21] = tested on: Mus musculus; experiment: Reversal of DOI-induced hyperlocomotion in CD-1 mouse assessed as reduction in rearing at 7.5 mg/kg, ip administered 90 mins prior to DOI induction and measured upto 30 mins post DOI treatment (reference value: 59.8 +/- 8.6 Counts); type: functional; details: time <= 120 min, 2 h
[22] = tested on: Mus musculus; experiment: Reversal of DOI-induced hyperlocomotion in CD-1 mouse assessed as reduction in rearing at 10 mg/kg, ip administered 90 mins prior to DOI induction and measured upto 30 mins post DOI treatment (reference value: 59.8 +/- 8.6 Counts); type: functional; details: time <= 120 min, 2 h
[23] = Drug concentration in CD-1 mouse plasma at 3 mg/kg, ip administered for 90 mins; type: ADME, organism-based
[24] = Drug concentration in CD-1 mouse plasma at 5 mg/kg, ip administered for 90 mins; type: ADME, organism-based
[25] = Drug concentration in CD-1 mouse plasma at 10 mg/kg, ip administered for 90 mins; type: ADME, organism-based
[26] = Drug concentration in CD-1 mouse brain at 3 mg/kg, ip administered for 90 mins; type: ADME, organism-based; details: read-out: Ct
[27] = Drug concentration in CD-1 mouse brain at 5 mg/kg, ip administered for 90 mins; type: ADME, organism-based; details: read-out: Ct
[28] = Drug concentration in CD-1 mouse brain at 10 mg/kg, ip administered for 90 mins; type: ADME, organism-based; details: read-out: Ct
[29] = in vivo; details: Sprague-Dawley, rat, brain and plasma
Description: Ratio of AUC(0 to 72 hrs) in Sprague-Dawley rat brain to plasma by LC-MS/MS analysis

Chain of Cytochrome P450 2C19 (P33261 whole entry): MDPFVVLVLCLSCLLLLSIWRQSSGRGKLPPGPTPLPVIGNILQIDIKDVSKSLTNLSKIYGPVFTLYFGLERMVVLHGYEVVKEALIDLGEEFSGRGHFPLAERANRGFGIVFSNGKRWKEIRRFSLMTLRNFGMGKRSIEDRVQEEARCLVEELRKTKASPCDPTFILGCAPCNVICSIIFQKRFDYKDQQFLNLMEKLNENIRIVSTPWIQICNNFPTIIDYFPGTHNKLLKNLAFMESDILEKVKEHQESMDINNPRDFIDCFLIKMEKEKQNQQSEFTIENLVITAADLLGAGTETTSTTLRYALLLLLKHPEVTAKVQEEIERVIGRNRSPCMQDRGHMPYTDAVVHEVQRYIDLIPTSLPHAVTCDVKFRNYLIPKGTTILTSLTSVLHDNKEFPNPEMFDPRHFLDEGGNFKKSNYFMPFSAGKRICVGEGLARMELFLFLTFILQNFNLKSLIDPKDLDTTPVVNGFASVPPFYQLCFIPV
Chain of Potassium voltage-gated channel subfamily A member 5 (P22460 whole entry): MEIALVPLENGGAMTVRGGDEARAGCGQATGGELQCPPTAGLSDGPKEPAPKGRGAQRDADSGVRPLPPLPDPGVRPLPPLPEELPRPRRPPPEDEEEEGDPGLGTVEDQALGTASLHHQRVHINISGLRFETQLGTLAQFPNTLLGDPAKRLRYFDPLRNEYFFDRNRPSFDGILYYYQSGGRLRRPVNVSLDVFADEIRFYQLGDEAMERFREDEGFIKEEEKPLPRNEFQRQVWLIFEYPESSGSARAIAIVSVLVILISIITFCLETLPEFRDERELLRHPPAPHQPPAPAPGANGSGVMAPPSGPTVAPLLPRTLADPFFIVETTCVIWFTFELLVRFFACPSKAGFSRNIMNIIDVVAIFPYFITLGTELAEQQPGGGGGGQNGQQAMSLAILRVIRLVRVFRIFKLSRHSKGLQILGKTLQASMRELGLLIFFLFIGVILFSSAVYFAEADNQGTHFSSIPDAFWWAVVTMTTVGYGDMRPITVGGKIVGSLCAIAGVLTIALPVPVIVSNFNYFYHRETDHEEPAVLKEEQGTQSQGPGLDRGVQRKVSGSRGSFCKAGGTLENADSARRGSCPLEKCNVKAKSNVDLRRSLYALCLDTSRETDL
Chain of Glutamate NMDA receptor; GRIN1/GRIN2B (Q13224 whole entry, other chains not shown): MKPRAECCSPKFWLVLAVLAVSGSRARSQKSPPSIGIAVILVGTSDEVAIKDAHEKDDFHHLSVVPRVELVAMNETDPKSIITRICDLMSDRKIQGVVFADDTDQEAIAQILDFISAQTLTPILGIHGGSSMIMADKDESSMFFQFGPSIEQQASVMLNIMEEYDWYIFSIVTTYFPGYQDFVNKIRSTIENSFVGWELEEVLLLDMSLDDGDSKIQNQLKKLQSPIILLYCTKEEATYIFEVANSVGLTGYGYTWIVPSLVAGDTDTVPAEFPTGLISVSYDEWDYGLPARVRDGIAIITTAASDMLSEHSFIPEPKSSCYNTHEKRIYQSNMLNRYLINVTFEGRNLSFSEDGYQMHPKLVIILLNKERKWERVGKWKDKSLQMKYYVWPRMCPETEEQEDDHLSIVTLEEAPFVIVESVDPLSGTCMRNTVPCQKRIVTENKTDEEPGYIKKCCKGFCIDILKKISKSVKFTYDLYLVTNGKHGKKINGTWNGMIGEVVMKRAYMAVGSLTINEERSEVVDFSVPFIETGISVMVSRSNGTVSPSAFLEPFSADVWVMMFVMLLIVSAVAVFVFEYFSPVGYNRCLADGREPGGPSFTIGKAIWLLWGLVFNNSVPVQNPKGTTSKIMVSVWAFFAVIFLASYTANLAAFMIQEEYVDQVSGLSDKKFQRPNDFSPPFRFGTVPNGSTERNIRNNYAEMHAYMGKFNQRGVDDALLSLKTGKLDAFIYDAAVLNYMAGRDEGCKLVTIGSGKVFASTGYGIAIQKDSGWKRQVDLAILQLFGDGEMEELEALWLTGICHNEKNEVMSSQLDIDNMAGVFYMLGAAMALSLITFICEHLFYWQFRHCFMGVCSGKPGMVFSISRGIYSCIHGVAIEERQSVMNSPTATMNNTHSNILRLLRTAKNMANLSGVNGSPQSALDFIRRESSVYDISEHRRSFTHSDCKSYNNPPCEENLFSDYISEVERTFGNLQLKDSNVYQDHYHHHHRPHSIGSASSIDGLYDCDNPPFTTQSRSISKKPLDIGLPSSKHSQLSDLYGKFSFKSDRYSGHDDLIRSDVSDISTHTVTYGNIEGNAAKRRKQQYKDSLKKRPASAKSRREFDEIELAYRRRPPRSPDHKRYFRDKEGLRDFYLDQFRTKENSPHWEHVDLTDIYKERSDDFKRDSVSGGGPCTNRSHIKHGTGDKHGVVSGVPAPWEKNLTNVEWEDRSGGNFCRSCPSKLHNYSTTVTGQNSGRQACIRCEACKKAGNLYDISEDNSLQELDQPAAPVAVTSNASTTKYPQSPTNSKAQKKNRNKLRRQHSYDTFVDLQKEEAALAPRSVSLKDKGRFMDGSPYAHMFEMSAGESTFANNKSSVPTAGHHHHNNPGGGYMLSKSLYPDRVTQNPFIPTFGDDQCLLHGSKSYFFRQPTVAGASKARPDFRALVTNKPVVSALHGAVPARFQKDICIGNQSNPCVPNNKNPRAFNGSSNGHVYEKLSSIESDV
Chain of Cytochrome P450 3A4 (P08684 whole entry): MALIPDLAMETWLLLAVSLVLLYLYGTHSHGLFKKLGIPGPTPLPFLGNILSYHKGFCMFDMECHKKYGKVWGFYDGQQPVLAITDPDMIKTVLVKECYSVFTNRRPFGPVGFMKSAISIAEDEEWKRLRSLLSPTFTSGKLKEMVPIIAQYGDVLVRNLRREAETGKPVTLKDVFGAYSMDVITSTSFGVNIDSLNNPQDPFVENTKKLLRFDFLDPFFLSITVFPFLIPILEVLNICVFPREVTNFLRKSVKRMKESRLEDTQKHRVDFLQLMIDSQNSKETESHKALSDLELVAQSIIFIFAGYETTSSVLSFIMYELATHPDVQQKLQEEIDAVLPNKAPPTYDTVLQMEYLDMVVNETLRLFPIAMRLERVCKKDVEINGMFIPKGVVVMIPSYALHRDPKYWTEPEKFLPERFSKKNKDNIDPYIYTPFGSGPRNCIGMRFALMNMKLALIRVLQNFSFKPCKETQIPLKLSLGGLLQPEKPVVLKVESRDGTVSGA

microsomal CLint at 10 µM [1]: 11 µL/min/mg
EC50 [2]: 0.079 µM
logD at 20 µM [3]: 6.2
clearance [4]: 10 mL/min/kg
bioavailability [5]: 28%
IC50 [6]: > 100 µM
IC50 [7]: > 10 µM
IC50 [8]: > 100 µM
IC50 [9]: > 100 µM
fraction unbound at 0.25 h [10]: 0.014
fraction unbound at 0.25 h [11]: 0.022
fraction unbound at 0.25 h [12]: 0.028
fraction unbound at 0.25 h [13]: 0.015
IC50 [14]: > 30 µM
IC50 [15]: > 30 µM
concentration at 1.5 h [23]: 577 ng/mL
concentration at 1.5 h [24]: 1550 ng/mL
concentration at 1.5 h [25]: 3210 ng/mL
concentration at 1.5 h [26]: 490 ng/g
concentration at 1.5 h [27]: 894 ng/g
concentration at 1.5 h [28]: 1610 ng/g
Kp [29]: 5.3
SMILES: C[C@H](CC[C@](C)(O)C(F)(F)F)[C@H]1CC[C@H]2[C@@H]3CC=C4C[C@@](C)(O)CC[C@]4(C)[C@H]3CC[C@]12C [DALZANEMDOR]
Activity [16]: 6.9 m
Activity [17]: 4.1 m
Activity [18]: 1.1 m
Activity [19]: 52.9 Counts
Activity [20]: 27.1 Counts
Activity [21]: 6.1 Counts
Activity [22]: 7.7 Counts
